Data reported in article PMC7144376, “Antiviral Effects of Novel 2-Benzoxyl-Phenylpyridine Derivatives” (Molecules, 2020).
Like-named read-outs stand apart in the source and are kept apart here.

Tests used:
[1] = tested on: CVB3; assay: Viral release analysis; assay type: cell-based, Coxsackievirus B3; settings: Hep-2 cells, 12 h; intra- and extracellular titers; 120 μM W-9, 160 μM W-13, W-15, ribavirin
Procedure: Figure 3 Analysis of the modes of action of W9, W13, and W15 against CVB3. (a) Analysis of effective stage. The antiviral effects of test compounds against CVB3 were detected by measuring cell viability after 48 h of infection when cells were treated with W9, W13, or W15 before, simultaneously, or after inoculation with CVB3 (100 TCID50). (b) Analysis of the effects on CVB3 adsorption. Mock-, 120 μM W-9-, 160 μM W-13-, 160 μM W-15-, or 160 μM ribavirin-treated CVB3 (10^6 TCID50) was inoculated onto Hep-2 cells and adsorbed for 2 h. Infected cells were then harvested and subjected to virus titration, using the TCID50 method. (c) The effects of test compounds on CVB3 release from Hep-2 cells. Hep-2 cells infected with 100 TCID50 of CVB3 were incubated with test compounds for 12 h, then cells and culture supernatants (intra- and extracellular) analyzed for virus yield, separately or together. Mock, no infection; VC, virus control. Values represent the means ± SDs of three independent experiments. * p < 0.05; ** p < 0.01, compared with the virus control group.
The viral life cycle is completed by release of progeny for further infection of neighboring cells. Therefore, we tested whether viral release from cells is affected by W9, W13, and W15. Hep-2 cells infected with 100 TCID50 of CVB3 were incubated with test compounds for 12 h, then both cells and supernatants (intra- and extracellular), or one of which was harvested separately, and virus yields were determined. Ribavirin was used as the positive control.
Hep-2 cells were treated with or without 120 μM W-9, 160 μM W-13, 160 μM W-15, or 160 μM ribavirin after infection with 100 TCID50 of CVB3. Supernatants and cells were harvested together or separately for the determination of progeny virus yields at 12 h pi by the Reed–Muench method.

[2] = tested on: CVB3; assay: Inhibition of CVB3-induced cytopathic effects in Hep-2 cells (MTT); assay type: cell-based, Coxsackievirus B3; settings: for protection against CVB3-induced CPEs (microscopy): 120 μM W-9, 160 μM W-13, 160 μM W-15; for EC50 / inhibition at 160 µM: Enterovirus B; for EC50: 100 TCID50 CVB3, 48 h, MTT, read-out: EC50 (50% protection from virus-induced cytopathogenicity), CVB3; for inhibition at 160 µM: CVB3, at 160 μM, read-out: inhibition of CVB3 infections
Procedure: (§1) Figure 1 Antiviral activities of novel 2-benzoxyl-phenylpyridine derivatives against CVB3 and ADV7. […] Hep-2 or HeLa cells were infected with 100 TCID50 of CVB3 or ADV7 for 1.5 h at 37 °C. Then, the inocula were aspirated and the cells were incubated with various concentrations of test compounds for 48 h. Cell viability was determined using the MTT assay. (b) Images showing the morphology of Hep-2 and HeLa cells treated with 120 μM W-9, 160 μM W-13, or 160 μM W-15 (magnification, 20×).
(§2) The antiviral activities of compounds against CVB3 and ADV7 were determined by measuring their inhibition of virus-induced CPEs in acutely infected Hep-2 and HeLa cells, respectively. Confluent cell monolayers in 96-well plates were infected with 100 TCID50 of CVB3 or ADV7 for 1.5 h at 37 °C, inocula were aspirated, and the cells then were incubated with various concentrations of compounds at 37 °C, 5% CO2, for 48 h. CPEs were observed by microscopy and the viability of cells was determined using MTT assays. The concentrations of test compounds required to achieve 50% protection from virus-induced cytopathogenicity (EC50 values) were determined. Adverse effects of tested compounds on host cells were also assessed using the MTT method after exposing uninfected cells to various concentrations of test compounds for 48 h at 37 °C. The CC50 values of compounds were calculated using SPSS software and selectivity indices were the ratio of CC50:EC50. Each experiment was performed in triplicate and at least three times, independently.

[3] = tested on: CVB3; assay: Time of (drug) addition experiment; assay type: cell-based, Coxsackievirus B3; settings: compound present −1–10, 0–10 or 2–10 h; yield at 12 h pi; 120 μM W-9, 160 μM W-13, W-15, ribavirin
Procedure: To further elucidate the mechanisms underlying the activities of W9, W13, and W15 against CVB3 propagation in cells, we conducted a time-of-addition experiment. Briefly, 120 μM W-9, or 160 μM W-13, W-15 or ribavirin, were added to Hep-2 cells at different time periods following CVB3 infection and progeny virus yield was determined at 12 h post-infection (pi). […] In contrast, when compounds were added during the 4–10 h stage after viral infection, production of viral progeny increased somewhat, however, compared with the virus control group, the inhibition effect was still clear. Drug treatments during other periods following CVB3 infection led to a gradual increase in viral yields, reflecting a loss of antiviral effects.
Figure 4 Time-of-addition assay. 120 μM W-9, or 160 μM W-13, W-15, or ribavirin, were added to Hep-2 cells for different time periods after CVB3 infection. Progeny virus yield was determined at 12 h post-infection ((−1)–0 h, viral infection period; 0–10 h, period of virus proliferation in cells). Values are presented as means ± SDs. * p < 0.05; ** p < 0.01, compared with the virus control group.
Hep-2 cells were infected with 100 TCID50 of CVB3 and then 120 μM W-9, 160 μM W-13, 160 μM W-15, or 160 μM ribavirin were added for different time periods (−1–0, 0–10, 2–10, 4–10, 6–10, 8–10, or −1–10 h pi, where –1–0 h is the viral infection period and 0–10 h is the period of virus proliferation in the cells). Cells and culture supernatants were harvested at 12 h pi and subjected to three freeze-thaw cycles, after which virus titers were determined by the Reed–Muench method.

[4] = Cytotoxicity on uninfected Hep-2 cells (MTT, 48 h); assay type: cell-based; settings: human, read-out: CC50 (reduce cell viability by 50%), CVB3 host cells
Procedure: Human laryngeal carcinoma cells (Hep-2) and human cervical carcinoma cells (HeLa) were maintained in DMEM (Gibco) supplemented with 10% fetal bovine serum (FBS; Gibco), 100 U/mL penicillin and streptomycin, and 2 mM L-glutamine.
as §2

[5] = tested on: CVB3; assay: Direct inactivation of virions (viricidal test); assay type: cell-based, Coxsackievirus B3; settings: 10^4 TCID50 CVB3, 2 h at 37 °C; 120 μM W-9, 160 μM W-13, W-15, ribavirin
Procedure: To determine whether these 2-benzoxyl-phenylpyridine derivatives inactivated virions directly, 10^4 TCID50 of CVB3 suspension was incubated with 120 μM W-9, 160 μM W-13, 160 μM W-15, or 160 μM ribavirin for 2 h at 37 °C. Subsequently, viral titers were measured by inoculating 100-fold dilutions of the mixtures, beyond the effective concentrations of the compounds, into the host cells. TCID50 values were calculated by the Reed–Muench method on day 2 post-inoculation.

[6] = tested on: ADV7; assay: Inhibition of ADV7-induced cytopathic effects in HeLa cells (MTT); assay type: cell-based, adenovirus type 7; settings: for protection against ADV7-induced CPEs (microscopy): 120 μM W-9, 160 μM W-13, 160 μM W-15; for EC50 / inhibition at 160 µM: Human mastadenovirus B; for EC50: 100 TCID50 ADV7, 48 h, MTT, read-out: EC50 (50% protection from virus-induced cytopathogenicity), ADV7; for inhibition at 160 µM: read-out: inhibition of ADV7 infections
Procedure: as §1, §2

SMILES	effect on CVB3 release from cells [1]	SI (CC50/EC50), CVB3 [2]	inhibitory activity against CVB3 infection (in words) [2]	protection against CVB3-induced CPEs (microscopy) [2]	EC50 [2]	inhibition at 160 µM [2]	progeny virus titer in time-of-addition assay [3]	CC50 at 48 h [4]	virus titer after incubating CVB3 suspension with compound (viricidal activity) [5]	SI (CC50/EC50), ADV7 [6]	inhibitory activity against ADV7 infection (in words) [6]	protection against ADV7-induced CPEs (microscopy) [6]	EC50 [6]	inhibition at 160 µM [6]	SI (CC50/EC50), ADV7 ([6]; listed as W-13)	maximum inhibition of CVB3 [2]	maximum inhibition of ADV7 [6]
O=C(Oc1cc(Cl)ccc1-c1ccccn1)c1ccccc1 [W9]	do not act on viral release from cells	6.0	significant inhibitory activities	almost complete protection	24.6 ± 8.7 µM	73%	progeny virus titers were reduced	148 ± 11.6 µM	No significant difference	9.8	significant inhibitory activities	almost complete protection	27.1 ± 9 µM	81.4%	–	–	–
CC(=O)Oc1ccc(-c2ccccn2)c(OC(=O)c2ccccc2)c1 [W15]	do not act on viral release from cells	6.5	significant inhibitory activities	almost complete protection	69.7 ± 15 µM	90%	progeny virus titers were reduced	451 ± 32.4 µM	No significant difference	12.2	significant inhibitory activities	almost complete protection	65.2 ± 21.6 µM	89.4%	–	–	–
Cc1ccc(OC(=O)C(C)(C)C)c(-c2ccccn2)c1 [W13]	do not act on viral release from cells	10.2	significant inhibitory activities	almost complete protection	41.6 ± 11.5 µM	92.8%	progeny virus titers were reduced	424 ± 26.8 µM	No significant difference	>10	significant inhibitory activities	almost complete protection	36.4 ± 16.4 µM	83.9%	> 10	–	–
NC(=O)c1ncn([C@@H]2O[C@H](CO)[C@@H](O)[C@H]2O)n1 [Ribavirin, reference compound]	do not act on viral release from cells	8.3	–	–	101 µM	–	very similar effects	836 µM	No significant difference	7.1	–	–	114 µM	–	–	63.0%	72.4%
